Data as given in the NIST ThermoML archive (doi:10.1016/j.fluid.2010.09.021).

Experiment: excess molar enthalpy (molar enthalpy of mixing); xn = mol fraction of the nth substance listed
Conditions: Liquid, Flow calorimetry

CCCCCC[N+]1(C)CCCC1.O=S(=O)([N-]S(=O)(=O)C(F)(F)F)C(F)(F)F + Cc1ccccc1
413.15 K, 2377 kPa
Conditions	excess molar enthalpy [kcal/mol]
x2 = 0.0759	-0.0366
x2 = 0.1443	-0.0704
x2 = 0.2063	-0.0967
x2 = 0.2626	-0.121
x2 = 0.314	-0.145
x2 = 0.3612	-0.165
x2 = 0.4448	-0.189
x2 = 0.5165	-0.199
x2 = 0.5787	-0.203
x2 = 0.6812	-0.188
x2 = 0.7622	-0.151
x2 = 0.8278	-0.112
x2 = 0.9058	-0.0643
x2 = 0.9665	-0.0259

CCCC[N+]1(C)CCCC1.O=S(=O)([N-]S(=O)(=O)C(F)(F)F)C(F)(F)F + Cc1ccccc1
413.15 K, 2342 kPa
Conditions	excess molar enthalpy [kcal/mol]
x2 = 0.0687	-0.029
x2 = 0.1315	-0.0605
x2 = 0.1892	-0.0872
x2 = 0.2423	-0.103
x2 = 0.2914	-0.119
x2 = 0.3368	-0.136
x2 = 0.4184	-0.16
x2 = 0.4896	-0.168
x2 = 0.5523	-0.166
x2 = 0.6574	-0.153
x2 = 0.7421	-0.123
x2 = 0.8119	-0.094
x2 = 0.8962	-0.0543
x2 = 0.9628	-0.0181

CCCCCC[N+]1(C)CCCC1.O=S(=O)([N-]S(=O)(=O)C(F)(F)F)C(F)(F)F + c1ccccc1
393.15 K, 2342 kPa
Conditions	excess molar enthalpy [kcal/mol]
x2 = 0.0899	-0.0422
x2 = 0.1686	-0.0867
x2 = 0.238	-0.121
x2 = 0.2998	-0.145
x2 = 0.355	-0.177
x2 = 0.4047	-0.199
x2 = 0.4906	-0.227
x2 = 0.5622	-0.252
x2 = 0.6228	-0.263
x2 = 0.7198	-0.236
x2 = 0.7939	-0.19
x2 = 0.8525	-0.141
x2 = 0.9204	-0.0734
x2 = 0.972	-0.0246

CCCC[N+]1(C)CCCC1.O=S(=O)([N-]S(=O)(=O)C(F)(F)F)C(F)(F)F + c1ccccc1
363.15 K, 2239 kPa
Conditions	excess molar enthalpy [kcal/mol]
x2 = 0.0815	-0.0309
x2 = 0.1541	-0.0622
x2 = 0.2191	-0.0851
x2 = 0.2777	-0.11
x2 = 0.3308	-0.136
x2 = 0.3792	-0.154
x2 = 0.4639	-0.181
x2 = 0.5357	-0.203
x2 = 0.7758	-0.175
x2 = 0.8385	-0.125
x2 = 0.9121	-0.07
x2 = 0.9689	-0.0232
